Values of other authors, collected in patent US20020192293A1, “Method for manufacture of extended release dosage form” (priority 2001, published 2002).
Read-outs that look alike come from different tables or passages of the source.

Details: in words

solubility in water (listed as free-phenytoin) | Compound | solubility in water
practically insoluble in water | O=C1NC(=O)C(c2ccccc2)(c2ccccc2)N1 [phenytoin, 5,5-diphenyl-2,4-imidazolidinedione] | poor solubility in water
– | O=C1N=C([O-])NC1(c1ccccc1)c1ccccc1.[Na+] [sodium phenytoin, Sodium phenytoin] | much more soluble
